The numbers were not newly measured in patent US20100255088A1 (priority 2009, published 2010), which cites them from elsewhere.

Read-outs that look alike come from different tables or passages of the source.

Assay in data set [1]: not given
The source holds these as a separate data set.

The test system of a further data set is platelet aggregation. The settings on record: aspirin resistance group of patients.
Data set [2] deals with yeast and primitives animals. The settings on record: high resveratrol levels artificially maintained.
In another data set the target is H+/K+ ATPase (Homo sapiens, UniProt P20648). To be noted: Life Sciences 66(8), 2000, 663-673.
Chain of H+/K+ ATPase (P20648 whole entry): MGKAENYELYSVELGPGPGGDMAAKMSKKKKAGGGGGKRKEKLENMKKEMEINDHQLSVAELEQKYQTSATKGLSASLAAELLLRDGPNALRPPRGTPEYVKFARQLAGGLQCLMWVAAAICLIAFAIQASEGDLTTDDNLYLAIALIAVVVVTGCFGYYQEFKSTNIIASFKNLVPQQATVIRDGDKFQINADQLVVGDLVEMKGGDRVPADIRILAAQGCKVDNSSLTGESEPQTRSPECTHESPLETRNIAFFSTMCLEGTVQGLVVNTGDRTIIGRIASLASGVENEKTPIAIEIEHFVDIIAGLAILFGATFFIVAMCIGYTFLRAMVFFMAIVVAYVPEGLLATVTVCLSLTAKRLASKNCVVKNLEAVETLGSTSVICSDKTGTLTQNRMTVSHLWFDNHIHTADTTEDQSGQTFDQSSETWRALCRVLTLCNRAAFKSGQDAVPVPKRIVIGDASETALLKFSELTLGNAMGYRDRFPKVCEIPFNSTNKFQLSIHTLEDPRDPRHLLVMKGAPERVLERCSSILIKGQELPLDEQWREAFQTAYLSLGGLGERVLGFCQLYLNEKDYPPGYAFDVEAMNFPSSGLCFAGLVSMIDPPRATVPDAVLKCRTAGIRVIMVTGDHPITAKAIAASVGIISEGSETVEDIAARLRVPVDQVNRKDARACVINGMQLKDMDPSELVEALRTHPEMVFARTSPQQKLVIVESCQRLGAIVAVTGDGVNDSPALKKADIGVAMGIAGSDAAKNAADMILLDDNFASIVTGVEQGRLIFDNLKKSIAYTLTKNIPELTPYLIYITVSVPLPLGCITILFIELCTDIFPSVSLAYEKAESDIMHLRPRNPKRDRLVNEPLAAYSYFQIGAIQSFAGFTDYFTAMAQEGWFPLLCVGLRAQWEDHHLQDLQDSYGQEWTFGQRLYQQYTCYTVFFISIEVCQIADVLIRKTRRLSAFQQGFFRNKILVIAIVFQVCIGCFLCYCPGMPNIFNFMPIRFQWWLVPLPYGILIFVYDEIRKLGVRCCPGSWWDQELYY
Chain of H+/K+ ATPase (P51164 whole entry partner): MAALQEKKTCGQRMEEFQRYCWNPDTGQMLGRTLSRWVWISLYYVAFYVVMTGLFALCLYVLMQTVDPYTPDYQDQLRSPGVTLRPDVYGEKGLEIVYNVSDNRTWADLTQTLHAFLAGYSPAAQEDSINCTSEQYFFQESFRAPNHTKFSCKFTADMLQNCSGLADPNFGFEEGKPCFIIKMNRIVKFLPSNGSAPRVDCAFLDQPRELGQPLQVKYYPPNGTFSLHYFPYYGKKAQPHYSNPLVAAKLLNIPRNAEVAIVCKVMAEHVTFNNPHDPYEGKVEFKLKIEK
Data set [3] has as its system isolated pig retinal artery. The settings on record: through the NO system and prostacycline secretion.

Take `CC(=O)Oc1ccccc1C(=O)O` [aspirin, acetyl salicylic acid]: the “patients with reduced mortality” value is on record as 50% (at least 325 mg daily for ten years) and 75% (higher doses for ten years). The “incidence of various human carcinomas” value (full dose aspirin for ten years and above) is listed as “halved”. In addition, the water solubility result in data set [1] is listed as “not water-soluble”.
On to `Oc1ccc(C=Cc2cc(O)cc(O)c2)cc1` [resveratrol], for which, in the data set with platelet aggregation, the platelet aggregation inhibition result is on record as “optimal platelet aggregation inhibition”. In addition, the life span entry in data set [2] is listed as “doubling the life span”. Besides, on H+/K+ ATPase, the hydrochloric acid production result is listed as “reducing significantly the hydrochloric acid production”. In addition, the vasodilating effect entry in data set [3] is “strong vasodilating effect”.
